Here are results for 33 compounds from patent US6960614B2, “Oxygenated esters of 4-lodo phenylamino benzhydroxamic acids” (Warner-Lambert Company, priority 2000, dated 2005).

A word on the IC50: it is the concentration that gives 50% inhibition. A higher IC50 goes with a need for much substance. A word on the melting point: it is the temperature, or range, at which the solid turns liquid.

The subject of data set [1] is MEK. The experiment in a line: Cellular Assay for Measuring MEK Inhibition (inhibition of ERK phosphorylation in C26 cells, Western blot). The data set is classed as cell-based, murine. Particulars: inhibition of ERK phosphorylation in murine colon 26 (C26) carcinoma cells; determined graphically from dose response curve. The method in brief: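 Read-out is phospho-ERK1/2 by Western blot, normalized against total ERK1/2 after stripping and re-probing. Murine C26 colon carcinoma cells in exponential growth were exposed to a range of compound concentrations at 37° C before lysis.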
Background: In western blotting, separated proteins are transferred to a membrane and probed.

`O=C(NOCCO)c1cc(Cl)c(F)c(F)c1Nc1ccc(F)cc1F` [Example 26, 5-Chloro-2-(2,4-difluoro-phenylamino)-3,4-difluoro-N-(2-hydroxy-ethoxy)-benzamide]: the melting point fell in the range of 161.6 to 162.4 °C. The compound further displayed an IC50 in data set [1] of 240 nM.
Taken in the same sequence, the figures for `O=C(NOCCO)c1ccc(F)c(F)c1Nc1ccc(F)cc1F` [Example 27, 2-(2,4-Difluoro-phenylamino)-3,4-difluoro-N-(2-hydroxy-ethoxy)-benzamide] were 141.1 to 141.6 °C and 120 nM.
Taken in the same sequence, the figures for `Cc1cc(I)ccc1Nc1cc(F)ccc1C(=O)NOCCCO` [Example 28, 4-Fluoro-N-(3-hydroxy-propoxy)-2-(4-iodo-2-methyl-phenylamino)-benzamide] were 120.8 to 122.4 °C and 120 nM.
The like results for `Cc1cc(I)ccc1Nc1c(C(=O)NOCCCO)cc(Cl)c(F)c1F` [Example 29, 5-Chloro-3,4-difluoro-N-(3-hydroxy-propoxy)-2-(4-iodo-2-methyl-phenylamino)-benzamide] were, in that order, 155.2 to 156.6 °C and 47 nM.
For `O=C(NOCCCO)c1ccc(F)cc1Nc1ccc(I)cc1Cl` [Example 30], the melting point lay in the range of 158.8 to 160.8 °C. The same compound came in with an IC50 in data set [1] of 130 nM.
The like results for `O=C(NOCCCCO)c1ccc(F)c(F)c1Nc1ccc(I)cc1F` [Example 33] were, in that order, 131.4 to 131.9 °C and 5 nM.
As to `Cc1cc(I)ccc1Nc1c(C(=O)NOCC(O)CO)cc(Cl)c(F)c1F` (stereo not drawn) [Example 35, 5-Chloro-N-(2,3-dihydroxy-propoxy)-3,4-difluoro-2-(4-iodo-2-methyl-phenylamino)-benzamide], the melting point lay in the range of 67 to 69 °C. The same compound displayed an IC50 in data set [1] of 6 nM.
Compound `Cc1cc(I)ccc1Nc1c(C(=O)NOCCC(O)CO)cc(Cl)c(F)c1F` (stereo not drawn) [Example 36, 5-Chloro-N-(3,4-dihydroxy-butoxy)-3,4-difluoro-2-(4-iodo-2-methyl-phenylamino)-benzamide] came in with a melting point of 135 to 138 °C. Also, the IC50 in data set [1] stood at 53 nM.
Taken in the same sequence, the figures for `O=C(NOCCC(O)CO)c1cc(Cl)c(F)c(F)c1Nc1ccc(I)cc1Cl` (stereo not drawn) [Example 37, 5-Chloro-2-(2-chloro-4-iodo-phenylamino)-N-(3,4-dihydroxy-butoxy)-3,4-difluoro-benzamide] were 146 to 148 °C and 30 nM.
Taken in the same sequence, the figures for `CC1(C)OCC(CONC(=O)c2ccc(F)c(F)c2Nc2ccc(I)cc2F)O1` (stereo not drawn) [Example 38, N-(2,2-Dimethyl-[1,3]dioxolan-4-ylmethoxy)-3,4-difluoro-2-(2-fluoro-4-iodo-phenylamino)-benzamide] were 114 to 115 °C and greater than 1000 nM.
`O=C(NOCC(O)CO)c1ccc(F)cc1Nc1ccc(I)cc1F` (stereo not drawn) [Example 42, N-(2,3-Dihydroxy-propoxy)-4-fluoro-2-(2-fluoro-4-iodo-phenylamino)-benzamide] had a melting point of 173 to 175 °C. In addition, the IC50 in data set [1] is 2.7 nM.
The like results for `O=C(NOCC(O)CO)c1cc(F)c(F)c(F)c1Nc1ccc(I)cc1F` (stereo not drawn) [Example 43, N-(2,3-Dihydroxy-propoxy)-3,4,5-trifluoro-2-(2-fluoro-4-iodo-phenylamino)-benzamide] were, in that order, 157 to 160 °C and 1.8 nM.
Taken in the same sequence, the figures for `O=C(NOCC(O)CO)c1ccc(F)c(F)c1Nc1ccc(Br)cc1F` (stereo not drawn) [Example 44] were 110 to 117 °C (dec.) and 3 nM.
Taken in the same sequence, the figures for `O=C(NOCC(O)CO)c1ccc(F)c(F)c1Nc1ccc(Cl)cc1F` (stereo not drawn) [Example 45, 2-(4-Chloro-2-fluoro-phenylamino)-N-(2,3-dihydroxy-propoxy)-3,4-difluoro-benzamide] were 114 to 114.9 °C and 19 nM.
Turning to `CC1(C)OCC(ONC(=O)c2ccc(F)c(F)c2Nc2ccc(I)cc2F)CO1` [Example 46, N-(2,2-Dimethyl-[1,3]dioxan-5-yloxy)-3,4-difluoro-2-(2-fluoro-4-iodo-phenylamino)-benzamide], the melting point lay within 154 to 155 °C. For the same compound, half-maximal inhibition in data set [1] (IC50) required 582 nM.
Taken in the same sequence, the figures for `O=C(NOC(CO)CO)c1ccc(F)c(F)c1Nc1ccc(I)cc1F` [Example 47, 3,4-Difluoro-2-(2-fluoro-4-iodo-phenylamino)-N-(2-hydroxy-1-hydroxymethyl-ethoxy)-benzamide] were 111 to 114 °C and 1 nM.
Taken in the same sequence, the figures for `O=C(NOC(CO)CO)c1cc(Cl)c(F)c(F)c1Nc1ccc(I)cc1F` [Example 48, 5-Chloro-3,4-difluoro-2-(2-fluoro-4-iodo-phenylamino)-N-(2-hydroxy-1-hydroxymethyl-ethoxy)-benzamide] were 173 to 175 °C and 1.6 nM.
The like results for `O=C(NOC[C@H](O)CO)c1cc(Cl)c(F)c(F)c1Nc1ccc(I)cc1Cl` [Example 51, 5-Chloro-2-(2-chloro-4-iodo-phenylamino)-N-[(R)-2,3-dihydroxy-propoxy]-3,4-difluoro-benzamide] were, in that order, 155 to 156 °C and 3.8 nM.
Take `O=C(NOC[C@@H](O)CO)c1cc(Cl)c(F)c(F)c1Nc1ccc(I)cc1Cl` [Example 52, 5-Chloro-2-(2-chloro-4-iodo-phenylamino)-N-[(S)-2,3-dihydroxy-propoxy]-3,4-difluoro-benzamide]: the melting point is 153 to 154 °C. The compound also yielded an IC50 in data set [1] of 7.8 nM.
`C=COCCONC(=O)c1ccc(F)cc1Nc1ccc(I)cc1F` [Example 58, 4-Fluoro-2-(2-fluoro-4-iodo-phenylamino)-N-(2-vinyloxy-ethoxy)-benzamide] registered a melting point of 103.5 to 104 °C. The compound also came in with an IC50 in data set [1] of 60 nM.
Consider `C=COCCONC(=O)c1cc(Br)c(F)c(F)c1Nc1ccc(I)cc1F` [Example 61, 5-Bromo-3,4-difluoro-2-(2-fluoro-4-iodo-phenylamino)-N-(2-vinyloxy-ethoxy)-benzamide], for which the melting point was in the range of 128 to 130 °C. In data set [1], this compound showed an IC50 of 150 nM.
Taken in the same sequence, the figures for `CC(C)(CO)ONC(=O)c1cc(Br)c(F)c(F)c1Nc1ccc(I)cc1Cl` [Example 62, 5-Bromo-2-(2-chloro-4-iodo-phenylamino)-3,4-difluoro-N-(2-hydroxy-1,1-dimethyl-ethoxy)-benzamide] were 179 to 181 °C and 18 nM.
Taken in the same sequence, the figures for `Cc1cc(I)ccc1Nc1c(C(=O)NOC(C)(C)CO)ccc(F)c1F` [Example 63, 3,4-Difluoro-N-(2-hydroxy-1,1-dimethyl-ethoxy)-2-(4-iodo-2-methyl-phenylamino)-benzamide] were 175 to 176 °C and 47 nM.
`CC(C)(O)CONC(=O)c1ccc(F)c(F)c1Nc1ccc(I)cc1Cl` [Example 64, 2-(2-Chloro-4-iodo-phenylamino)-3,4-difluoro-N-(2-hydroxy-2-methyl-propoxy)-benzamide]: the melting point was in the range of 140 to 153 °C. In data set [1], this compound returned an IC50 of 13 nM.
The like results for `CC(C)(CO)ONC(=O)c1ccc(F)c(F)c1Nc1ccc(I)cc1F` [Example 65, 3,4-Difluoro-2-(2-fluoro-4-iodo-phenylamino)-N-(2-hydroxy-1,1-dimethyl-ethoxy)-benzamide] were, in that order, 182 to 183 °C and 14 nM.
The like results for `CC(C)(CO)ONC(=O)c1cc(Cl)c(F)c(F)c1Nc1ccc(I)cc1F` [Example 66, 5-Chloro-3,4-difluoro-2-(2-fluoro-4-iodo-phenylamino)-N-(2-hydroxy-1,1-dimethyl-ethoxy)-benzamide] were, in that order, 178 to 180 °C and 2 nM.
The like results for `CC(C)(O)CONC(=O)c1ccc(F)c(F)c1Nc1ccc(I)cc1F` [Example 67, 3,4-Difluoro-2-(2-fluoro-4-iodo-phenylamino)-N-(2-hydroxy-2-methyl-propoxy)-benzamide] were, in that order, 156.7 to 156.9 °C and 6 nM.
Take `COCC(O)CONC(=O)c1ccc(F)c(F)c1Nc1ccc(I)cc1C` (stereo not drawn) [Example 68]: the melting point is 136.2 to 136.5 °C. In addition, it took 24 nM to reach half-maximal inhibition in data set [1] (IC50).
The like results for `COCC(O)CONC(=O)c1cc(Br)c(F)c(F)c1Nc1ccc(I)cc1Cl` (stereo not drawn) [Example 69, 5-Bromo-2-(2-chloro-4-iodo-phenylamino)-3,4-difluoro-N-(2-hydroxy-3-methoxy-propoxy)-benzamide] were, in that order, 139.5 to 140.1 °C and 60 nM.
Taken in the same sequence, the figures for `Cc1cc(I)ccc1Nc1c(C(=O)NOCC2(CO)CC2)ccc(F)c1F` [Example 70, 3,4-Difluoro-N-(1-hydroxymethyl-cyclopropylmethoxy)-2-(4-iodo-2-methyl-phenylamino)-benzamide] were 165.4 to 165.6 °C and 200 nM.
Taken in the same sequence, the figures for `O=C(NOCC1(CO)CC1)c1cc(Br)c(F)c(F)c1Nc1ccc(I)cc1Cl` [Example 71, 5-Bromo-2-(2-chloro-4-iodo-phenylamino)-3,4-difluoro-N-(1-hydroxymethyl-cyclopropylmethoxy)-benzamide] were 152.6 to 153.9 °C and 120 nM.
On to `Cc1cc(I)ccc1Nc1c(C(=O)NOCC(O)C(F)(F)F)ccc(F)c1F` (stereo not drawn) [Example 72, 3,4-Difluoro-2-(4-iodo-2-methyl-phenylamino)-N-(3,3,3-trifluoro-2-hydroxy-propoxy)-benzamide], for which the melting point lay in the range of 175.2 to 175.5 °C. In data set [1], this compound returned an IC50 of 19 nM.
Taken in the same sequence, the figures for `O=C(NOCC(O)C(F)(F)F)c1cc(Br)c(F)c(F)c1Nc1ccc(I)cc1Cl` (stereo not drawn) [Example 73, 5-Bromo-2-(2-chloro-4-iodo-phenylamino)-3,4-difluoro-N-(3,3,3-trifluoro-2-hydroxy-propoxy)-benzamide] were 186.9 to 187.3 °C and 80 nM.
